Test results published in US11178873B2, “Cyclic N-carboxamide compounds useful as herbicides” (FMC CORPORATION, priority 2015, dated 2021).

Experiments:
Format in all cases: in vivo
[1] = test system: rice (Oryza sativa); experiment: Test B flooded paddy test, rice; details: Flood, 250 g ai/ha; scale 0 to 100 (0 no effect, 100 complete control); 13 to 15 d
Outline: (§1)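 Plants at the 2-leaf stage were flooded to 3 cm above soil, and test compounds were applied directly into the paddy water, which was held at that depth throughout. After 13 to 15 d in a greenhouse, injury was rated visually against untreated controls on a 0–100 scale (0 no effect, 100 complete control).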

[2] = test system: velvetleaf (Abutilon theophrasti); experiment: Test A postemergence, velvetleaf; details: 0 to 100 scale, 0 no effect, 100 complete control
Text: (§2) Seeds of plant species selected from barnyardgrass (Echinochloa crus-galli), crabgrass, large (large crabgrass, Digitaria sanguinalis), kochia (Kochia scoparia), ragweed (common ragweed, Ambrosia elatior), morningglory (Ipomoea spp.), velvetleaf (Abutilon theophrasti), ryegrass, Italian (Italian ryegrass, Lolium multiflorum), foxtail, giant (giant foxtail, Setaria faberii), wheat (Triticum aestivum), corn (Zea mays), and pigweed (Amaranthus retroflexus), were planted into a blend of loam soil and sand and treated preemergence with a directed soil spray using test chemicals formulated in a non-phytotoxic solvent mixture which included a surfactant. At the same time, plants selected from these crop and weed species and also blackgrass (Alopecurus myosuroides), and galium (catchweed bedstraw, Galium aparine), were planted in pots containing the same blend of loam soil and sand and treated with postemergence applications of test chemicals formulated in the same manner. Plants ranged in height from 2 to 10 cm and were in the one- to two-leaf stage for the postemergence treatment. Treated plants and untreated controls were maintained in a greenhouse for approximately 10 d, after which time all treated plants were compared to untreated controls and visually evaluated for injury. Plant response ratings, summarized in Table A, are based on a 0 to 100 scale where 0 is no effect and 100 is complete control. A dash (-) response means no test result.

[3] = test system: crabgrass, large (large crabgrass, Digitaria sanguinalis); experiment: Test A preemergence, crabgrass, large; details: 0 to 100 scale, 0 no effect, 100 complete control
Text: as §2

[4] = test system: foxtail, giant (giant foxtail, Setaria faberii); experiment: Test A postemergence, foxtail, giant; details: 0 to 100 scale, 0 no effect, 100 complete control
Outline: (§3)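 Greenhouse pot test, loam/sand soil. Pre: directed soil spray at planting; post: foliar spray at 1–2 leaf stage, 2–10 cm height. Formulation: non-phytotoxic solvent + surfactant. Visual injury vs untreated controls at ~10 d, scored 0–100 (100 = complete control).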

[5] = test system: morningglory (Ipomoea spp.); experiment: Test A postemergence, morningglory; details: 0 to 100 scale, 0 no effect, 100 complete control
Text: as §2

[6] = test system: morningglory (Ipomoea spp.); experiment: Test A preemergence, morningglory; details: 0 to 100 scale, 0 no effect, 100 complete control
Text: as §2

[7] = test system: wheat (Triticum aestivum); experiment: Test A preemergence, wheat; details: 0 to 100 scale, 0 no effect, 100 complete control
Text: as §2

[8] = test system: pigweed (Amaranthus retroflexus); experiment: Test A preemergence, pigweed; details: 0 to 100 scale, 0 no effect, 100 complete control
Outline: as §3

[9] = test system: foxtail, giant (giant foxtail, Setaria faberii); experiment: Test A preemergence, foxtail, giant; details: 0 to 100 scale, 0 no effect, 100 complete control
Outline: as §3

[10] = test system: velvetleaf (Abutilon theophrasti); experiment: Test A preemergence, velvetleaf; details: 0 to 100 scale, 0 no effect, 100 complete control
Text: as §2

[11] = test system: ducksalad (Heteranthera limosa); experiment: Test B flooded paddy test, ducksalad; details: Flood, 250 g ai/ha; scale 0 to 100 (0 no effect, 100 complete control); 13 to 15 d
Outline: as §1

[12] = test system: barnyardgrass (Echinochloa crus-galli); experiment: Test A postemergence, barnyardgrass; details: 0 to 100 scale, 0 no effect, 100 complete control
Outline: as §3

[13] = test system: barnyardgrass (Echinochloa crus-galli); experiment: Test A preemergence, barnyardgrass; details: 0 to 100 scale, 0 no effect, 100 complete control
Outline: as §3

[14] = test system: pigweed (Amaranthus retroflexus); experiment: Test A postemergence, pigweed; details: 0 to 100 scale, 0 no effect, 100 complete control
Outline: as §3

[15] = test system: corn (Zea mays); experiment: Test A preemergence, corn; details: 0 to 100 scale, 0 no effect, 100 complete control
Text: as §2

[16] = test system: corn (Zea mays); experiment: Test A postemergence, corn; details: 0 to 100 scale, 0 no effect, 100 complete control
Outline: as §3

[17] = test system: barnyardgrass (Echinochloa crus-galli); experiment: Test B flooded paddy test, barnyardgrass; details: Flood, 250 g ai/ha; scale 0 to 100 (0 no effect, 100 complete control); 13 to 15 d
Outline: as §1

[18] = test system: sedge, umbrella (small-flower umbrella sedge, Cyperus difformis); experiment: Test B flooded paddy test, sedge, umbrella; details: Flood, 250 g ai/ha; scale 0 to 100 (0 no effect, 100 complete control); 13 to 15 d
Outline: as §1

[19] = test system: wheat (Triticum aestivum); experiment: Test A postemergence, wheat; details: 0 to 100 scale, 0 no effect, 100 complete control
Outline: as §3

[20] = test system: crabgrass, large (large crabgrass, Digitaria sanguinalis); experiment: Test A postemergence, crabgrass, large; details: 0 to 100 scale, 0 no effect, 100 complete control
Text: as §2

Row | Compound | Plant response rating, Rice [1] | Plant response rating, Velvetleaf ([2]; 125 g ai/ha) | Plant response rating, Velvetleaf ([2]; 500 g ai/ha) | Plant response rating, Crabgrass, Large ([3]; 125 g ai/ha) | Plant response rating, Crabgrass, Large ([3]; 500 g ai/ha) | Plant response rating, Foxtail, Giant ([4]; 125 g ai/ha) | Plant response rating, Foxtail, Giant ([4]; 500 g ai/ha) | Plant response rating, Morningglory ([5]; 125 g ai/ha) | Plant response rating, Morningglory ([5]; 500 g ai/ha) | Plant response rating, Morningglory ([6]; 125 g ai/ha) | Plant response rating, Morningglory ([6]; 500 g ai/ha) | Plant response rating, Wheat ([7]; 125 g ai/ha) | Plant response rating, Wheat ([7]; 500 g ai/ha) | Plant response rating, Pigweed ([8]; 125 g ai/ha) | Plant response rating, Pigweed ([8]; 500 g ai/ha) | Plant response rating, Foxtail, Giant ([9]; 125 g ai/ha) | Plant response rating, Foxtail, Giant ([9]; 500 g ai/ha) | Plant response rating, Velvetleaf ([10]; 125 g ai/ha) | Plant response rating, Velvetleaf ([10]; 500 g ai/ha) | Plant response rating, Ducksalad [11] | other results
1 | O=C(Nc1ccccc1Cl)N1C(=O)OCC1c1ccc(F)c(F)c1 (stereo not drawn) [Compound 2] | 0 | 0 | 0 | 40 | 80 | 0 | 0 | 0 | 0 | 0 | 0 | 0 | 0 | 0 | 0 | 0 | 30 | 0 | 0 | 0 | Plant response rating, Barnyardgrass ([12]; 125 g ai/ha): 0; Plant response rating, Barnyardgrass ([12]; 500 g ai/ha): 0; Plant response rating, Barnyardgrass ([13]; 125 g ai/ha): 0; Plant response rating, Barnyardgrass ([13]; 500 g ai/ha): 0; Plant response rating, Pigweed ([14]; 125 g ai/ha): 0; Plant response rating, Pigweed ([14]; 500 g ai/ha): 0; Plant response rating, Corn ([15]; 125 g ai/ha): 0; Plant response rating, Corn ([15]; 500 g ai/ha): 0; Plant response rating, Corn ([16]; 125 g ai/ha): 0; Plant response rating, Corn ([16]; 500 g ai/ha): 0; Plant response rating, Barnyardgrass [17]: 0; Plant response rating, Sedge, Umbrella [18]: 0; Plant response rating, Wheat ([19]; 125 g ai/ha): 0; Plant response rating, Wheat ([19]; 500 g ai/ha): 0; Plant response rating, Crabgrass, Large ([20]; 125 g ai/ha): 0; Plant response rating, Crabgrass, Large ([20]; 500 g ai/ha): 0
2 | O=C(Nc1ccccc1F)N1C(=O)OCC1c1ccc(Cl)cc1 (stereo not drawn) [Compound 4] | 0 | 0 | 0 | 0 | 20 | 0 | 0 | 0 | 0 | 0 | 0 | 0 | 0 | 0 | 0 | 0 | 0 | 0 | 0 | 0 | Plant response rating, Barnyardgrass ([12]; 125 g ai/ha): 0; Plant response rating, Barnyardgrass ([12]; 500 g ai/ha): 0; Plant response rating, Barnyardgrass ([13]; 125 g ai/ha): 0; Plant response rating, Barnyardgrass ([13]; 500 g ai/ha): 0; Plant response rating, Pigweed ([14]; 125 g ai/ha): 0; Plant response rating, Pigweed ([14]; 500 g ai/ha): 0; Plant response rating, Corn ([15]; 125 g ai/ha): 0; Plant response rating, Corn ([15]; 500 g ai/ha): 0; Plant response rating, Corn ([16]; 125 g ai/ha): 0; Plant response rating, Corn ([16]; 500 g ai/ha): 0; Plant response rating, Barnyardgrass [17]: 0; Plant response rating, Sedge, Umbrella [18]: 0; Plant response rating, Wheat ([19]; 125 g ai/ha): 0; Plant response rating, Wheat ([19]; 500 g ai/ha): 0; Plant response rating, Crabgrass, Large ([20]; 125 g ai/ha): 0; Plant response rating, Crabgrass, Large ([20]; 500 g ai/ha): 0
